Series [1] relates to Sphaerotheca fuliginea. The series can be described thus: In vivo preventive test on Sphaerotheca fuliginea (powdery mildew on cucurbits). Conditions: preventive spray, gherkin plants, grading 12 days after contamination. The method, then:
Gherkin plants (“Vert petit de Paris” variety), sown in starter cups on a 50/50 peat soil-pozzolana substrate and grown at 24° C., are treated at the Z11 cotyledon stage by spraying with the active ingredient prepared as described above. Plants, used as controls, are treated with the mixture of acetone/tween/DMSO/water not containing the active material. After 24 hours, the plants are contaminated by spraying the cotyledons with an aqueous suspension of Sphaerotheca fuliginea spores (100 000 spores per ml). The spores are collected from infected plants. The contaminated gherkin plants are incubated at about 20° C. and at 70-80% relative humidity. Grading (% of efficacy) is carried out 12 days after the contamination, in comparison with the control plants.

The subject of series [2] is Uromyces appendiculatus. The series can be described thus: In vivo preventive test on Uromyces appendiculatus (bean rust). Conditions: preventive spray, bean plants, grading 11 days after contamination. How it is done: Bean plants (“Saxa” variety), sown in starter cups on a 50/50 peat soil-pozzolana substrate and grown at 24° C., are treated at the 2-leaf stage (9 cm height) by spraying with the active ingredient prepared as described above. Plants, used as controls, are treated with the mixture of acetone/tween/DMSO/water not containing the active material. After 24 hours, the plants are contaminated by spraying the leaves with an aqueous suspension of Uromyces appendiculatus spores (150 000 spores per ml). […] Grading (% of efficacy) is carried out 11 days after the contamination, in comparison with the control plants.

Series [3] deals with Alternaria brassicae. The series can be described thus: In vivo preventive test on Alternaria brassicae (leaf spot on radish). Conditions: 500 ppm, preventive spray, radish plants, grading 6 days after contamination. How it is done: Radish plants (“Pernod Clair” variety), sown in starter cups on a 50/50 peat soil-pozzolana substrate and grown at 17° C., are treated at the cotyledon stage by spraying with the active ingredient prepared as described above. Plants, used as controls, are treated with the mixture of acetone/tween/DMSO/water not containing the active material. After 24 hours, the plants are contaminated by spraying the cotyledons with an aqueous suspension of Alternaria brassicae spores (50 000 spores per ml). The spores are collected from a 15-day-old culture. […] Grading (% of efficacy) is carried out 6 days after the contamination, in comparison with the control plants.

Series [4] is described as follows: log P by HPLC on reversed phase columns (EEC directive 79/831 Annex V.A8). The format is physicochemical. Conditions: Table 1, compounds of formula (I); method [a]: LC-MS at pH 2.7, 0.1% formic acid in water / acetonitrile.
Series [5] deals with Pyrenophora teres. The series is described as follows: In vivo preventive test on Pyrenophora teres (net blotch on barley). The following applies: 500 ppm, preventive spray, barley plants, incubated 48 hours then 12 days. How it is done: Barley plants (“Plaisant” variety), sown in starter cups on a 50/50 peat soil-pozzolana substrate and grown at 22° C., are treated at the 1-leaf stage (10 cm height) by spraying with the active ingredient prepared as described above. Plants, used as controls, are treated with the mixture of acetone/tween/DMSO/water not containing the active material. After 24 hours, the plants are contaminated by spraying the leaves with an aqueous suspension of Pyrenophora teres spores (12 000 spores per ml). The spores are collected from a 12-day-old culture.

For series [6], the system named is Botrytis cinerea. The series is described as follows: In vivo preventive test on Botrytis cinerea (grey mould), gherkin. The following applies: preventive spray, gherkin plants, grading 4 to 5 days after contamination. The method, then:
Gherkin plants (“Vert petit de Paris” variety), sown in starter cups on a 50/50 peat soil-pozzolana substrate and grown at 24° C., are treated at the Z11 cotyledon stage by spraying with the active ingredient prepared as described above. Plants, used as controls, are treated with the mixture of acetone/tween/DMSO/water not containing the active material. After 24 hours, the plants are contaminated by spraying the cotyledons with an aqueous suspension of cryopreserved Botrytis cinerea spores (50 000 spores per ml). The spores are suspended in a nutrient solution composed of 10 g/L of PDB, 50 g/L of D-Fructose, 2 g/L of NH4NO3 and 1 g/L of KH2PO4. The contaminated gherkin plants are incubated at 17° C. and at 90% relative humidity. Grading (% of efficacy) is carried out 4 to 5 days after the contamination, in comparison with the control plants.

For series [7], the system named is Phakopsora pachyrhizi. The series can be described thus: In vivo Phakopsora test (soybeans) / preventive. Conditions: 10 ppm of active ingredient, evaluated 7 days after the inoculation. The method, then:
[table] To produce a suitable preparation of active compound, 1 part by weight of active compound is mixed with the stated amounts of solvent and emulsifier, and the concentrate is diluted with water to the desired concentration. To test for preventive activity, young plants are sprayed with the preparation of active compound at the stated rate of application. […] The plants remain in the incubation cabinet at approximately 24° C. and a relative atmospheric humidity of approximately 80% and a day/night interval of 12 h.

Series [8] concerns Septoria tritici. The series can be described thus: In vivo preventive test on Septoria tritici (leaf spot on wheat). Conditions: 500 ppm, preventive spray, wheat plants, grading 24 days after contamination. How it is done: Wheat plants (“Scipion” variety), sown in starter cups on a 50/50 peat soil-pozzolana substrate and grown at 22° C., are treated at the 1-leaf stage (10 cm height) by spraying with the active ingredient prepared as described above. Plants, used as controls, are treated with the mixture of acetone/tween/DMSO/water not containing the active material. After 24 hours, the plants are contaminated by spraying the leaves with an aqueous suspension of cryopreserved Septoria tritici spores (500 000 spores per ml). […] Grading (% of efficacy) is carried out 24 days after the contamination, in comparison with the control plants.

Series [9] deals with Puccinia recondita. The series is described as follows: In vivo preventive test on Puccinia recondita (brown rust on wheat). The following applies: preventive spray, wheat plants, grading 12 days after contamination. The method, then:
Plants, used as controls, are treated with the mixture of acetone/tween/DMSO/water not containing the active material. After 24 hours, the plants are contaminated by spraying the leaves with an aqueous suspension of Puccinia […] spores (100 000 spores per ml). […] Grading (% of efficacy) is carried out 12 days after the contamination, in comparison with the control plants.

In series [10] the test system is Fusarium nivale (var. majus). The series can be described thus: In vivo Fusarium nivale (var. majus) test (wheat) / preventive. Conditions: 500 ppm of active ingredient, evaluated 5 days after the inoculation. The method, then: [table] To produce a suitable preparation of active compound, 1 part by weight of active compound or active compound combination is mixed with the stated amounts of solvent and emulsifier, and the concentrate is diluted with water to the desired concentration. To test for preventive activity, young plants are sprayed with the preparation of active compound or active compound combination at the stated rate of application. After the spray coating has been dried, the plants are slightly injured by using a sandblast and afterwards they are sprayed with a conidia suspension of Fusarium nivale (var. majus).

Series [11] deals with Blumeria graminis fsp. hordei. The series can be described thus: In vivo Blumeria test (barley) / preventive. The following applies: 500 ppm of active ingredient, evaluated 7 days after the inoculation. How it is done: [table] To produce a suitable preparation of active compound, 1 part by weight of active compound or active compound combination is mixed with the stated amounts of solvent and emulsifier, and the concentrate is diluted with water to the desired concentration. To test for preventive activity, young plants are sprayed with the preparation of active compound or active compound combination at the stated rate of application. After the spray coating has been dried, the plants are dusted with spores of Blumeria graminis fsp. hordei. The plants are placed in the greenhouse at a temperature of approximately 18° C. and a relative atmospheric humidity of approximately 80% to promote the development of mildew pustules.

The test system of series [12] is Pyricularia oryzae. The series is classed as in vivo. Conditions: 500 ppm, preventive spray, rice plants, grading 6 days after contamination.
For series [13], the system named is Venturia inaequalis. The series is described as follows: In vivo Venturia test (apples) / preventive. Conditions: 100 ppm of active ingredient, evaluated 10 days after the inoculation. The method, then: [table] To produce a suitable preparation of active compound, 1 part by weight of active compound is mixed with the stated amounts of solvent and emulsifier, and the concentrate is diluted with water to the desired concentration. To test for preventive activity, young plants are sprayed with the preparation of active compound at the stated rate of application. […] The plants are then placed in a greenhouse at approximately 21° C. and a relative atmospheric humidity of approximately 90%.

The subject of series [14] is Phytophthora infestans. The format is in vivo. The following applies: 500 ppm, preventive spray, tomato plants, grading 5 days after contamination.

Each structure is given as a SMILES string.

As to `CC1CC2(CC2)c2cccc(NC(=O)c3cn(C)nc3C(F)F)c21` (stereo not drawn) [Example 25], the Eff. % is given as 100% in series [1] (500 ppm); 99% in series [2] (500 ppm); 93% in series [3]; 96% in series [5]; 88% in series [6] (500 ppm); 94% in [7]. Moreover, the Eff. % in series [8] is listed as 92%; in series [9] (500 ppm), 100%. The logP in series [4] is 3.13[a].

As for `CC1CC(C)c2c(NC(=O)c3cn(C)nc3C(F)F)cccc21` (stereo not drawn) [Example 8], the Eff. % in series [1] (500 ppm) is 95%; in series [2] (500 ppm) it was 100%; in series [5], 88%; in [6] (500 ppm), 100%; in series [8] it was 91%; in series [9] (500 ppm), 100%. For the same compound, the logP in [4] is 3.21[a].

In the case of `CC1CC2(CCCCC2)c2cccc(NC(=O)c3cn(C)nc3C(F)F)c21` (stereo not drawn) [Example 46], the Eff. % was 100% in [1] (100 ppm), 100% in series [2] (100 ppm), 75% in series [6] (100 ppm) and 100% in series [9] (100 ppm). For the same compound, the logP in series [4] is 4.2[a].

As for `CC1CC2(CC2)c2cccc(NC(=O)c3cn(C)nc3I)c21` (stereo not drawn) [Example 52], the Eff. % in [1] (100 ppm) worked out at 88%; in series [2] (100 ppm), 100%; in [6] (100 ppm), 87%; in series [9] (100 ppm), 90%. For the same compound, the logP in series [4] is 3.24[a].

As to `CC(C)CC1CC(C)c2c(NC(=S)c3cn(C)nc3C(F)F)cccc21` (stereo not drawn) [Example 44], the Eff. % came out at 100% in series [1] (500 ppm); 100% in [2] (500 ppm); 95% in series [3]; 73% in series [6] (500 ppm); 88% in series [8]; 100% in series [9] (500 ppm).

In the case of `CC1CC(C(C)C)c2cccc(NC(=O)c3cn(C)nc3C(F)F)c21` (stereo not drawn) [Example 1], the Eff. % is on record as 100% in [1] (500 ppm); 86% in [10]; 80% in [11]; 100% in series [2] (500 ppm); 81% in [5]; 100% in [7]. The Eff. % in [12] worked out at 93%; in [9] (500 ppm), 100%. Besides, the logP in series [4] is 3.74[a].

On to `CC1CC(C)c2c(NC(=O)c3cn(C)nc3C(F)F)cccc21` (stereo not drawn) [Example 7], for which the Eff. % in series [1] (500 ppm) stood at 100%; in [13] it was 100%; in series [10] it was 100%; in [14] it was 99%; in series [11], 94%; in series [2] (500 ppm), 100%. Also, the Eff. % in series [3] is given as 100%; in series [5], 92%; in [6] (500 ppm), 100%; in series [7], 100%; in series [8] it was 93%; in series [9] (500 ppm), 100%. The logP in [4] is 3.04[a].
